This note sets out measurements from US20200071316A1, “ACTIVATORS OF THE RETINOIC ACID INDUCIBLE GENE "RIG-I" PATHWAY AND METHODS OF USE THEREOF” (Kineta Immuno-Oncology LLC, priority 2018, published 2020).

Experiment [1] relates to IRF3 signaling pathway (IRF-inducible ISG54 promotor) in THP1-Lucia ISG cells. The experiment in a line: THP1-Lucia ISG reporter assay: induction of IRF3-dependent luciferase activity. Format: cell-based. The note with it: Homo sapiens, 10 μM compound, PMA-differentiated cells, 18 h after stimulation, read-out: THP1 ISG: fold increase of IRF3-dependent luciferase activity over background. How it is done: The compounds were evaluated in the THP1-Lucia™ ISG (interferon stimulated genes) reporter assay to determine if the compounds activate the IRF3 signaling pathway. The THP1-Lucia™ cells (InvivoGen) express the secreted luciferase (Lucia) reporter gene under the control of an IRF-inducible promotor. The reporter cell line was developed from human monocytic leukemia THP-1 cells.
(§1) The promotor was comprised of five IFN-stimulated response elements (ISRE) fused to an ISG54 minimal promotor which is unresponsive to NF-kB or AP-1 pathways. […] The IRF3-deficient THP1-Lucia™ ISG IRF3 −/− reporter cell line was generated by CRISPR technology from the parent THP1-Lucia™ ISG reporter cell line.
(§2) 5 THP1-Lucia™ ISG cells and IRF3-deficient THP1-Lucia™ ISG IRF3 −/− cells were differentiated with PMA (100 ng/ml) and stimulated with compounds at the indicated concentrations (5 to 20 μM), positive control, or not treated (background). Luciferase secretion was quantified using the QUANTI-Luc luciferase assay system (InvivoGen) 18 h after stimulation. Data are shown as fold increase luciferase activity over background in Table 7 and represent the IRF3-dependent ISG54 promotor activity by the THP1-Lucia™ ISG cells in response to compounds. […] The fold increase of compounds (10 μM, *20 μM, **5 μM) induced IRF3 dependent luciferase activity is indicated as follows: “−” indicates less than 2.4 fold increase; “+” indicates a 2.4-4.9 fold increase; “++” indicates a 5-9.9 fold increase; “+++” indicates a 10-19 fold increase; “++++” indicates a 20-39 fold increase; “+++++” indicates greater than or equal to 40 fold increase.
On the technique in general: In a reporter assay the amount or activity of a reporter protein is the signal.

Experiment [2] concerns THP1-Lucia ISG IRF3 −/− cells. The experiment in a line: IRF3-deficient THP1-Lucia ISG IRF3 −/− reporter assay (counter-screen). Format: cell-based. Particulars: Homo sapiens, 10 μM compound, 18 h after stimulation, read-out: THP1 ISG IRF3 −/−: fold increase of luciferase activity over background. How it is done: as §1, §2
In experiment [3] the test system is CXCL10 secretion by CT26 cells. In words: RIG-I dependent CXCL10 secretion by CT26 colon carcinoma cells (ELISA). It is filed as cell-based, murine. Particulars: 24 h. How it is done: (§3) The CT26 murine colon carcinoma cell line (ATCC) was used to evaluate the induction of CXCL10 secretion. CXCL10 is an important chemokine in tumor immune biology that recruits tumor-specific T cells to the tumor. To confirm that compound-mediated CXCL10 production was RIG-I specific, RIG-I deficient CT2-RIG-1−/− cells were generated by Kineta using CRISPR technology.
(§4) CT26 cells were seeded at a density of 1×10^4 cells per well on a 96-well tissue culture plate in 100 μL of cell culture and cells were incubated at 37° C. and 5% CO2 for 24 hr. Next, CT26 cells were treated with compounds at the indicated concentrations. CXCL10 was quantified by ELISA from supernatants taken 24 h after compound stimulation by use of the CXCL10 DuoSet ELISA kit (Cat # DY466, R&D, Minneapolis, Minn., USA) according to the manufacturer's instructions.
(§5) CXCL10 secretion by CT26 cells in response to compounds (in an amount of 5 to 20 μM) of the present disclosure is shown in Table 8. The compound-induced CXCL10 production was RIG-I dependent, since none of the compounds mediated CXCL10 secretion in RIG-I deficient CT26 RIG-1−/− cells. The compounds (10 μM, *20 μM, **5 μM) are indicated in the table as follows: “−” indicates less than 100 pg/mL; “+” indicates 100-199 pg/mL; “++” indicates 200-399 pg/mL; “+++” indicates 400-799 pg/mL; “++++” indicates 800 to 1599 pg/mL; “+++++” indicates greater than or equal to 1600 pg/ml.
On the technique in general: In an ELISA, binding on a coated surface is turned into a signal by an enzyme label.

Experiment [4] has as its system RIG-I deficient CT26 RIG-1−/− cells. In words: CXCL10 secretion in RIG-I deficient CT26 RIG-1−/− cells (ELISA). Particulars: 24 h. Format: cell-based, murine. How it is done:
as §3, §4, §5

Marks after values point to notes of the source that are not given here.

`CS(=O)(=O)c1ccc2nc(NC(=O)c3ccc4ccccc4c3)sc2c1` [Example 1, N-(6-methanesulfonyl-1,3-benzothiazol-2-yl)naphthalene-2-carboxamide]: the fold induction at 10 µM in experiment [1] was 10 to 19; in experiment [2], under 2.4. The “CXCL10 secretion by CT26 cells” value in experiment [3] (10 μM compound) was “++++ (“++++” indicates 800 to 1599 pg/mL)”. The “CXCL10 secretion by CT26 RIG-I −/− cells” value in experiment [4] (10 μM compound) was “− (“−” indicates less than 100 pg/mL)”.
The matching figures for `COC(=O)c1ccc2nc(NC(=O)c3ccc4ccccc4c3)sc2c1` [Example 2, methyl 2-(naphthalene-2-amido)-1,3-benzothiazole-6-carboxylate]: at least 40, under 2.4, “++++ (“++++” indicates 800 to 1599 pg/mL)” and “− (“−” indicates less than 100 pg/mL)”.
On to `O=C(Nc1nc2ccc(S(=O)(=O)N3CCOCC3)cc2s1)c1ccc2ccccc2c1` [Example 3, N-[6-(morpholine-4-sulfonyl)-1,3-benzothiazol-2-yl]naphthalene-2-carboxamide], for which the fold induction at 10 µM in experiment [1] was 10 to 19; in experiment [2], under 2.4. Moreover, the “CXCL10 secretion by CT26 cells” value in experiment [3] (10 μM compound) was “+++ (“+++” indicates 400-799 pg/mL)”. Besides, in experiment [4] (10 μM compound), the “CXCL10 secretion by CT26 RIG-I −/− cells” value was “− (“−” indicates less than 100 pg/mL)”.
`O=C(Nc1nc2ccc(SC(F)F)cc2s1)c1ccc2ccccc2c1` [Example 4, N-{6-[(difluoromethyl)sulfanyl]-1,3-benzothiazol-2-yl}naphthalene-2-carboxamide]: the figures for the fold induction at 10 µM in experiment [1] and in experiment [2] were at least 40 and under 2.4, respectively. Further, the “CXCL10 secretion by CT26 cells” value in experiment [3] (10 μM compound) is listed as “++++ (“++++” indicates 800 to 1599 pg/mL)”. In addition, the “CXCL10 secretion by CT26 RIG-I −/− cells” value in experiment [4] (10 μM compound) was “− (“−” indicates less than 100 pg/mL)”.
Turning to `O=C(Nc1nc2ccc(OCC(F)(F)F)cc2s1)c1ccc2ccccc2c1` [Example 5, N-[6-(2,2,2-trifluoroethoxy)-1,3-benzothiazol-2-yl]naphthalene-2-carboxamide], the figures for the fold induction at 10 µM in experiment [1] and in experiment [2] were 2.4 to 4.9 and under 2.4, respectively. The “CXCL10 secretion by CT26 cells” value in experiment [3] (10 μM compound) is given as “+++ (“+++” indicates 400-799 pg/mL)”. In experiment [4] (10 μM compound), the “CXCL10 secretion by CT26 RIG-I −/− cells” value is “− (“−” indicates less than 100 pg/mL)”.
Regarding `O=C(Nc1ccc2nc(NC(=O)c3ccc4ccccc4c3)sc2c1)c1ccccc1` [Example 6, N-(6-benzamido-1,3-benzothiazol-2-yl)naphthalene-2-carboxamide], the fold induction at 10 µM in experiment [1] is 20 to 39; in experiment [2], under 2.4. Also, the “CXCL10 secretion by CT26 cells” value in experiment [3] (10 μM compound) is given as “++ (“++” indicates 200-399 pg/mL)”. In addition, the “CXCL10 secretion by CT26 RIG-I −/− cells” value in experiment [4] (10 μM compound) was “− (“−” indicates less than 100 pg/mL)”.
The matching figures for `CS(=O)(=O)Nc1ccc2nc(NC(=O)c3ccc4ccccc4c3)sc2c1` [Example 7, N-(6-methanesulfonamido-1,3-benzothiazol-2-yl)naphthalene-2-carboxamide]: 20 to 39, under 2.4, “++ (“++” indicates 200-399 pg/mL)” and “− (“−” indicates less than 100 pg/mL)”.
Turning to `O=C(Nc1nc2ccc(NC(=O)C3CCCCC3)cc2s1)c1ccc2ccccc2c1` [Example 8, N-(6-cyclohexaneamido-1,3-benzothiazol-2-yl)naphthalene-2-carboxamide], the fold induction at 10 µM was 10 to 19 in experiment [1] and under 2.4 in experiment [2]. Moreover, the “CXCL10 secretion by CT26 cells” value in experiment [3] (10 μM compound) was “++++ (“++++” indicates 800 to 1599 pg/mL)”. Moreover, the “CXCL10 secretion by CT26 RIG-I −/− cells” value in experiment [4] (10 μM compound) is given as “− (“−” indicates less than 100 pg/mL)”.
`O=C(Nc1nc2ccc(SC(F)(F)F)cc2s1)c1ccc2ccccc2c1` [Example 9, N-{6-[(trifluoromethyl)sulfanyl]-1,3-benzothiazol-2-yl}naphthalene-2-carboxamide]: the fold induction at 10 µM in experiment [1] is 5 to 9.9; in experiment [2], under 2.4. For the same molecule, the “CXCL10 secretion by CT26 cells” value in experiment [3] (10 μM compound) is “+++ (“+++” indicates 400-799 pg/mL)”. Moreover, the “CXCL10 secretion by CT26 RIG-I −/− cells” value in experiment [4] (10 μM compound) is recorded as “− (“−” indicates less than 100 pg/mL)”.
In the case of `O=C(Nc1nc2ccc(-c3nc4ccccc4[nH]3)cc2s1)c1ccc2ccccc2c1` [Example 10, N-[6-(1H-1,3-benzodiazol-2-yl)-1,3-benzothiazol-2-yl]naphthalene-2-carboxamide], the fold induction at 10 µM in experiment [1] was 5 to 9.9; in experiment [2], under 2.4. The “CXCL10 secretion by CT26 cells” value in experiment [3] (10 μM compound) is “+++ (“+++” indicates 400-799 pg/mL)”. The “CXCL10 secretion by CT26 RIG-I −/− cells” value in experiment [4] (10 μM compound) is on record as “− (“−” indicates less than 100 pg/mL)”.
With `O=C(Nc1nc2ccc(S(=O)(=O)N3CCCC3)cc2s1)c1cc2ccccc2cc1OCCN1CCC(F)(F)CC1` [Example 79, 3-[2-(4,4-difluoropiperidin-1-yl)ethoxy]-N-[6-(pyrrolidine-1-sulfonyl)-1,3-benzothiazol-2-yl]naphthalene-2-carboxamide], in experiment [3] (5 μM compound (**)), the “CXCL10 secretion by CT26 cells” value is on record as “+** (“+” indicates 100-199 pg/mL)”. Further, the “CXCL10 secretion by CT26 RIG-I −/− cells” value in experiment [4] (5 μM compound (**)) is on record as “−** (“−” indicates less than 100 pg/mL)”.
Turning to `O=C(Nc1cc2ccc(S(=O)(=O)N3CCC3)cc2s1)c1cc2ccccc2cc1OCCCCN1CCOCC1` [Example 86, N-(6-(azetidin-1-ylsulfonyl)benzo[b]thiophen-2-yl)-3-(4-morpholinobutoxy)-2-naphthamide], the fold induction at 10 µM in experiment [1] was 20 to 39; in experiment [2], under 2.4.
Taken in the same sequence, the figures for `COCC1CN(CCOc2cc3ccccc3cc2C(=O)Nc2nc3ccc(S(=O)(=O)N4CCCC4)cc3s2)CCO1` (stereo not drawn) [Example 87, 3-{2-[2-(methoxymethyl)morpholin-4-yl]ethoxy}-N-[6-(pyrrolidine-1-sulfonyl)-1,3-benzothiazol-2-yl]naphthalene-2-carboxamide] were 20 to 39 and under 2.4.
For `O=C(Nc1nc2ccc(S(=O)(=O)N3CCCC3)cc2s1)c1cc2ccccc2cc1OCCN1CC2CCC1CO2` (stereo not drawn) [Example 88, 3-(2-{2-oxa-5-azabicyclo[2.2.2]octan-5-yl}ethoxy)-N-[6-(pyrrolidine-1-sulfonyl)-1,3-benzothiazol-2-yl]naphthalene-2-carboxamide], the fold induction at 10 µM was 20 to 39 in experiment [1] and under 2.4 in experiment [2].
Taken in the same sequence, the figures for `O=C(Nc1nc2ccc(S(=O)(=O)N3CCCC3)cc2s1)c1cc2ccccc2cc1OCCN1CC2CC(C1)O2` [Example 89, 3-(2-{6-oxa-3-azabicyclo[3.1.1]heptan-3-yl}ethoxy)-N-[6-(pyrrolidine-1-sulfonyl)-1,3-benzothiazol-2-yl]naphthalene-2-carboxamide] were 10 to 19 and under 2.4.
Taken in the same sequence, the figures for `O=C(Nc1nc2ccc(S(=O)(=O)N3CCCC3)cc2s1)c1cc2ccccc2cc1OCCN1C[C@H]2C[C@@H]1CO2` [Example 90] were 20 to 39 and under 2.4.
For the molecule `O=C(Nc1nc2ccc(S(=O)(=O)N3CCCC3)cc2s1)c1cc2c(cc1OCCN1CCOCC1)CCC2` [Example 91, 6-[2-(morpholin-4-yl)ethoxy]-N-[6-(pyrrolidine-1-sulfonyl)-1,3-benzothiazol-2-yl]-2,3-dihydro-1H-indene-5-carboxamide], the values for the fold induction at 10 µM in experiment [1] and in experiment [2] were 10 to 19 and under 2.4, respectively.
